PMC6325638 (Clinics in liver disease, 2017)
Like-named read-outs stand apart in the source and are kept apart here.

Tests used:
zebrafish larvae [1] = tested on: zebrafish larvae
zebrafish larvae [2] = conditions: in vivo
cultured rat hepatocytes = experiment: ROS induction and death in cultured hepatocytes; assay type: cell-based; conditions: 96-well plates, oxyethidium fluorescence
[3] = tested on: 3D multicellular microphysiological systems (MPS) of the human liver; conditions: 3D multicellular microfluidic human liver model; cited from earlier work
[4] = 72 hpf zebrafish larvae, 0.66 μM
[5] = 72 hpf zebrafish larvae, 6.6 μM
[6] = 72 hpf zebrafish larvae, 200 μM
[7] = 72 hpf zebrafish larvae, 0.07 μM
[8] = 72 hpf zebrafish larvae, 0.2 μM

SMILES | Live/dead (translucent = live, opaque = dead) (zebrafish larvae [1]; [4]) | Live/dead (translucent = live, opaque = dead) (zebrafish larvae [1]; 72 hpf zebrafish larvae, 2 μM) | Live/dead (translucent = live, opaque = dead) (zebrafish larvae [1]; [5]) | Live/dead (translucent = live, opaque = dead) (zebrafish larvae [1]; 72 hpf zebrafish larvae, 20 μM) | Live/dead (translucent = live, opaque = dead) (zebrafish larvae [1]; 72 hpf zebrafish larvae, 66 μM) | Live/dead (translucent = live, opaque = dead) (zebrafish larvae [1]; [6]) | Live/dead (translucent = live, opaque = dead) (zebrafish larvae [1]; [7]) | Visual toxicity (bent tail, distended peritoneum, edema, pericardial congestion) (zebrafish larvae [1]; [7]) | Live/dead (translucent = live, opaque = dead) (zebrafish larvae [1]; [8]) | Visual toxicity (bent tail, distended peritoneum, edema, pericardial congestion) (zebrafish larvae [1]; [8]) | Visual toxicity (bent tail, distended peritoneum, edema, pericardial congestion) (zebrafish larvae [1]; [4]) | Visual toxicity (bent tail, distended peritoneum, edema, pericardial congestion) (zebrafish larvae [1]; 72 hpf zebrafish larvae, 2 μM) | Visual toxicity (bent tail, distended peritoneum, edema, pericardial congestion) (zebrafish larvae [1]; [5]) | Visual toxicity (bent tail, distended peritoneum, edema, pericardial congestion) (zebrafish larvae [1]; 72 hpf zebrafish larvae, 20 μM) | also measured
CCCCc1oc2ccccc2c1C(=O)c1cc(I)c(OCCN(CC)CC)c(I)c1 [Amiodarone] | 4/0 | 4/0 | 4/0 | 4/0 | 0/4 | 0/4 |  |  |  |  |  |  |  |  | 
N#CC(C#N)=NNc1cccc(Cl)c1 [CCCP, Carbonyl cyandide m-chorophenyl hydrazone] | 4/0 | 4/0 | 4/0 |  |  |  | 4/0 | 2/4 | 4/0 | 4/4 | 3/4 | 3/4 | 2/4 | 0/1 | 
Cn1c(=O)c2c(ncn2C)n(C)c1=O [Caffeine] |  |  |  |  |  |  |  |  |  |  |  |  |  |  | Live/dead (translucent = live, opaque = dead) (zebrafish larvae [1]; 72 hpf zebrafish larvae, 3 μM): 4/0; Live/dead (translucent = live, opaque = dead) (zebrafish larvae [1]; 72 hpf zebrafish larvae, 10 μM): 4/0; Live/dead (translucent = live, opaque = dead) (zebrafish larvae [1]; 72 hpf zebrafish larvae, 30 μM): 4/0; Live/dead (translucent = live, opaque = dead) (zebrafish larvae [1]; 72 hpf zebrafish larvae, 100 μM): 4/0; Live/dead (translucent = live, opaque = dead) (zebrafish larvae [1]; 72 hpf zebrafish larvae, 300 μM): 4/0; Live/dead (translucent = live, opaque = dead) (zebrafish larvae [1]; 72 hpf zebrafish larvae, 1000 μM): 4/0
CC1=CC(=O)c2ccccc2C1=O [Menadione] | 4/0 | 4/0 | 4/0 | 0/4 | 0/4 | 0/4 |  |  |  |  |  |  |  |  | Generation of ROS in zebrafish (zebrafish larvae [2]): time-dependent and dose-dependent generation of ROS; ROS induction and death in cultured hepatocytes (cultured rat hepatocytes): ROS induction and death in cultured hepatocytes; Visual toxicity (bent tail, distended peritoneum, edema, pericardial congestion) (zebrafish larvae [1]; zebrafish, in vivo, 0.66 μM): 0/4; Visual toxicity (bent tail, distended peritoneum, edema, pericardial congestion) (zebrafish larvae [1]; zebrafish, in vivo, 2 μM): 2/4; Visual toxicity (bent tail, distended peritoneum, edema, pericardial congestion) (zebrafish larvae [1]; zebrafish, in vivo, 6.6 μM): 1/4
C=C(C)[C@H]1Cc2c(ccc3c2O[C@@H]2COc4cc(OC)c(OC)cc4[C@@H]2C3=O)O1 [Rotenone] | 4/0 | 4/0 |  | 1/4 |  |  | 4/0 | 2/4 | 4/0 | 3/4 | 2/4 | 1/4 | 0/3 | 1/1 | 
CN(Cc1cnc2nc(N)nc(N)c2n1)c1ccc(C(=O)N[C@@H](CCC(=O)O)C(=O)O)cc1 [methotrexate] |  |  |  |  |  |  |  |  |  |  |  |  |  |  | Chronic drug effect in human liver MPS [3]: induction of fibrosis
